How the values were obtained:
strawberry fruit [1] = test: PAD analogs: ability to delay strawberry fruit ripening; assay type: in vivo; conditions: for effect on strawberry fruit ripening: 50 μM in 0.1% TRITON-X 100
Protocol: Chemicals with similarity to PAD were tested for their ability to delay fruit ripening.
To the inventors' knowledge, no chemical closely-related to PAD is currently commercially available. A few analogs with 88-99% similarity to PAD were found in the ChemBridge database used in Example 1.

strawberry fruit [2] = test: Strawberry fruit ripening after dipping fruits on the plant; assay type: in vivo, Fragaria x ananassa CV. Albion; conditions: for strawberry appearance (FIG. 2B): 8 DAT; for strawberry appearance (FIG. 2B) / strawberry appearance (FIG. 2C) / strawberry appearance (FIG. 2D) / strawberry appearance (FIG. 2E) / strawberry appearance (FIG. 2F) / fruit started to turn red: 10 μM PAD or 1 mM ABA; for strawberry appearance (FIG. 2C): 9 DAT; for strawberry appearance (FIG. 2D): 10 DAT; for strawberry appearance (FIG. 2E): 11 DAT; for strawberry appearance (FIG. 2F): 12 DAT; for effect on strawberry fruit ripening compared to mock-treated fruit: dipped 20 seconds eight days after pollination, 10 μM PAD or 1 mM ABA in 0.1% TRITON X-100
Protocol: Strawberry plants (Fragaria x ananassa CV. Albion) were grown in a greenhouse at 28° C. and 14-hour light/10-hour dark conditions. Eight days after pollination, fruits were dipped for 20 seconds in 10 µM PAD in 0.1% TRITON X-100 surfactant; 1 mM ABA in 0.1% TRITON X-100 surfactant; or buffer alone (0.1% Triton X-100). Fruits were allowed to continue growing on the plants. FIG. 1 depicts images of strawberry fruit development under standard conditions.
Of the twelve chemicals identified in Example 1 as promoting seed germination, N-[3-chloro-4-(4-propionyl-1-piperazinyl)phenyl]-2-phenylacetamide was named “PAD,” and used for further study. […] Mock-treated fruit started to turn red at 10 DAT, and reached full red at 12 DAT. ABA-treated fruit started to turn red 9 DAT, and reached full red 11 DAT. In contrast, PAD-treated fruit only started turning red 12 DAT.

Cherry tomato fruits = test: Cherry tomato ripening after injection at mature green stage; assay type: in vivo; conditions: for cherry tomato appearance (FIG. 3B, FIG. 3D): 6 DAT, injected 10 µM PAD or 200 μM ABA (figure legend); for ripening stage of cherry tomato fruits: six days after treatment, injected 50 μM PAD or 200 μM ABA
Protocol: Cherry tomato fruits at mature green stage were purchased from Butler's Orchard (Germantown, Maryland, USA). […] FIG. 3A and FIG. 3B show images of cherry tomatoes injected with 50 µM PAD. FIG. 3C and FIG. 3D show images of cherry tomatoes injected with 200 μM ABA. FIG. 3E and FIG. 3F show images of cherry tomatoes injected with buffer alone. FIG. 3G and FIG. 3H show images of untreated tomatoes. FIG. 3A; FIG. 3C; FIG. 3E; and FIG. 3G show images taken the day of treatment. FIG. 3B; FIG. 3D; […]; and FIG. 3H show images taken 6 DAT.

strawberry fruit [3] = test: Strawberry fruit ripening after injection of fruits; assay type: in vivo, Fragaria x ananassa CV. Albion; conditions: for strawberry appearance (FIG. 4A): 8 DAT; for strawberry appearance (FIG. 4A) / strawberry appearance (FIG. 4B) / strawberry appearance (FIG. 4C) / strawberry appearance (FIG. 4D) / strawberry appearance (FIG. 4E) / fruit started to turn red: 10 µM PAD or 200 μM ABA; for strawberry appearance (FIG. 4B): 9 DAT; for strawberry appearance (FIG. 4C): 10 DAT; for strawberry appearance (FIG. 4D): 11 DAT; for strawberry appearance (FIG. 4E): 12 DAT
Protocol: Strawberry plants (Fragaria x ananassa CV. Albion) were grown and maintained as disclosed above. Fourteen days after pollination fruits were injected with 10 µM PAD in 0.1% TRITON X-100 surfactant; 200 μM ABA in 0.1% TRITON X-100 surfactant; or buffer alone (0.1% Triton X-100 surfactant).
FIG. 4A to FIG. 4F depict images of strawberries treated with either 10 µM PAD in 0.1% TRITON X-100 surfactant; 200 μM ABA in 0.1% TRITON X-100 surfactant; buffer alone ([…] surfactant; mock-treated); or not injected (control). […] Control fruit started to turn red 11 DAT, and reached full red at 12 DAT. Mock-treated fruit started to turn red at 10 DAT, and reached full red at 12 DAT. ABA-treated fruit started to turn red 9 DAT, and reached full red 11 DAT. In contrast, PAD-treated fruit only started turning red 12 DAT.

[4] = tested on: Strawberry seeds (Fragaria x ananassa CV. Albion); test: Chemical library screening for promotion of strawberry seed germination; assay type: in vivo; conditions: about 5 μM chemical in 0.1% TRITON X-100, 96 well plates, 25 C
Excerpt: Chemical libraries of small compounds were screened for compounds capable of promoting seed germination, delaying the fruit ripening process, and/or retarding fruit pigmentation. A chemical library containing 10,000 small compounds (˜300 Dalton) was purchased from ChemBridge Co (San Diego, California, USA). Strawberry seeds (Fragaria x ananassa CV. Albion) were purchased from Johnny's Seeds (Fairfield, Maine, USA). Five to six seeds were sterilized with 70% ethanol and added to each well of 96 well ELISA plates containing about 5 μM chemical in 0.1% TRITON X-100 surfactant (polyethylene glycol tert-octylphenyl ether). One mM abscisic acid (ABA), a hormone that inhibits seed germination, and gibberellic acid (GA3), a hormone that promotes seed germination, were used as controls. Each experiment was conducted in triplicate. Plates were kept in a growth chamber at 25 C under dark, and a 14 hour light/10 hour dark cycle was added after seed germination was observed.

strawberry fruit [5] = test: Strawberry fruit ripening after dipping fruits on the plant; assay type: in vivo, Fragaria x ananassa CV. Albion; conditions: 10 μM PAD applied on day 9 after pollination

Structure (SMILES)	effect on strawberry fruit ripening (strawberry fruit [1])	strawberry appearance (FIG. 2B) (strawberry fruit [2]; dipped)	strawberry appearance (FIG. 2C) (strawberry fruit [2]; dipped)	strawberry appearance (FIG. 2D) (strawberry fruit [2]; dipped)	strawberry appearance (FIG. 2E) (strawberry fruit [2]; dipped)	strawberry appearance (FIG. 2F) (strawberry fruit [2]; dipped)	effect on strawberry fruit ripening compared to mock-treated fruit (strawberry fruit [2])	fruit started to turn red (strawberry fruit [2]; dipped, days after treatment) [DAT]	cherry tomato appearance (FIG. 3B, FIG. 3D) (Cherry tomato fruits)	ripening stage of cherry tomato fruits (Cherry tomato fruits)	strawberry appearance (FIG. 4A) (strawberry fruit [3]; injected)	strawberry appearance (FIG. 4B) (strawberry fruit [3]; injected)	strawberry appearance (FIG. 4C) (strawberry fruit [3]; injected)	strawberry appearance (FIG. 4D) (strawberry fruit [3]; injected)	strawberry appearance (FIG. 4E) (strawberry fruit [3]; injected)	fruit started to turn red (strawberry fruit [3]; injected, days after treatment) [DAT]	other results
CC(C)(C)C(=O)N1CCN(c2ccc(NC(=O)Cc3ccccc3)cc2Cl)CC1 [N-(3-chloro-4-[4-(2,2-dimethylpropanoyl)-1-piperazinyl]phenyl)-2-phenylacetamide]	delayed strawberry fruit ripening	–	–	–	–	–	–	–	–	–	–	–	–	–	–	–	effectiveness in delaying strawberry fruit ripening relative to PAD (strawberry fruit [1]; 50 μM in 0.1% TRITON-X 100, same timing as PAD): much less effectively than PAD
CC(C)C(=O)N1CCN(c2ccc(NC(=O)C(c3ccccc3)c3ccccc3)cc2Cl)CC1 [N-(3-chloro-4-(4-isobutyryl-1-piperazinyl)phenyl]-2,2-diphenylacetamide]	no obvious effect	–	–	–	–	–	–	–	–	–	–	–	–	–	–	–	–
CC(C)C(=O)N1CCN(c2ccc(NC(=O)Cc3ccc(Cl)cc3)cc2)CC1 [2-(4-chlorophenyl)-N-[4-(4-isobutyryl-1-piperazinyl)phenyl]acetamide]	no obvious effect	–	–	–	–	–	–	–	–	–	–	–	–	–	–	–	–
CC1=CC(=O)CC(C)(C)[C@@]1(O)/C=C/C(C)=C\C(=O)O [ABA, abscisic acid, reference compound]	–	white	with pink spots	mostly red	red	red	stimulated strawberry fruit ripening	9	red	fully ripen (red stage)	with pink spots	mostly red	mostly red	mostly red	red	9	fruit reached full red (strawberry fruit [2]; dipped, 1 mM ABA, days after treatment): 11 DAT; fruit reached full red (strawberry fruit [3]; injected, 200 μM ABA, days after treatment): 11 DAT
CCC(=O)N1CCN(c2ccc(NC(=O)Cc3ccccc3)cc2Cl)CC1 [PAD, N-[3-chloro-4-(4-propionyl-1-piperazinyl)phenyl]-2-phenylacetamide]	–	white with a greenish tint	whit with a greenish tint	white with a greenish tint	white	red with some yellow	delayed fruit ripening	12	with a yellow and/or yellow/red tint	still at a green stage	with pink spots	orange	mostly red	mostly red	red	12	promoting seed germination [4]: promoted seed germination; fresh weight of strawberry fruit larger than mock-treated (strawberry fruit [2]; PAD-treated vs mock-treated): about 10%; sugar content versus mock-treated controls (strawberry fruit [2]; PAD-treated vs mock-treated): no difference in the sugar content; effect on cherry tomato ripening compared to mock-treated or untreated (Cherry tomato fruits; injected 50 μM PAD): delay in cherry tomato ripening; delay in cherry tomato fruit ripening (Cherry tomato fruits; mature green stage, 50 μM PAD): about a seven-day delay; effect on strawberry fruit ripening compared to not-treated, mock-treated and ABA treated fruit (strawberry fruit [3]; injected fourteen days after pollination, 10 µM PAD): delayed fruit ripening; delay of strawberry fruit ripening compared with mock-treated (strawberry fruit [5]): about 2 days

— patent publication US20250098692A1, “GERMINATION/SPROUTING AND FRUIT RIPENING REGULATORS” (The United States of America, as Represented by the …, priority 2021, published 2025)
